Measurements from patent publication US20130183237A1 (priority 2007, published 2013).

Molecular target: thrombin (Homo sapiens, UniProt P00734)
Settings: fibrinogen 3 mg/ml, thrombin 20 nM, 37° C., no pre-incubation, dose-dependent
Description: 200 μl of fibrinogen (final concentration 3 mg/ml) were incubated with 100 μl of peptides (various concentrations) at 37° C. Clotting of fibrinogen was initiated by the addition of 100 μl of thrombin (final concentration 20 nM). All reagents and samples were dissolved in 50 mM Tris buffer (pH 7.4) containing 100 mM NaCl.

APPFDFEAIPEEYLDDES [AP18]
fibrinogen clotting time: prolonged
